Assay results published in US7868006B2, “Heterocyclic substituted piperazines with CXCR3 antagonist activity” (Schering Corporation, priority 2005, dated 2011).

What follows are molecules tested against T1, human CXCR3 (N-delta 4) (Homo sapiens, UniProt P49682) (assay: Human CXCR3 (N-delta 4) Scintillation Proximity Assay (SPA), [125I] IP-10 binding). Settings: Ba/F3-hCXCR3 (N-delta 4) membranes, 25 pM [125I] IP-10; read-out: IC50 value.
T1 construct: CD8 leader (N); Flag tag (N); expressed in transfected cells; host or cells: mouse pro-B Ba/F3 cells, stably transfected with pME18Sneo-hCXCR3 (N-delta 4); membrane preparation
T1 sequence (P49682 5-368 limits assumed): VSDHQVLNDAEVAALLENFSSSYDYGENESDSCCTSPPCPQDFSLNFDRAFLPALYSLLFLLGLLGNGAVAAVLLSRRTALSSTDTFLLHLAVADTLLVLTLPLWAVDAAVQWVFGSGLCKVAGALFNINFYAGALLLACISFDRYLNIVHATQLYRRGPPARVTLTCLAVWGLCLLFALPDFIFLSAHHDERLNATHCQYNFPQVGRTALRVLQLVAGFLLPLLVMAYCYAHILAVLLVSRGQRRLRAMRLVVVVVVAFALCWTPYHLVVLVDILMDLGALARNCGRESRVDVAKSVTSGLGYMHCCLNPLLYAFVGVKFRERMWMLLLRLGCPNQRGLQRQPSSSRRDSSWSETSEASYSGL
Excerpt: The inventive compounds can readily be evaluated to determine activity at The CXCR3 receptors by known methods, such as, for example, Development of Human CXCR3 (N-delta 4) Binding Assay.
Cloning and Expression of Human CXCR3 (N-delta 4):
The DNA encoding human CXCR3 was cloned by PCR using human genomic DNA (Promega, Madison, Wis.) as a template. The PCR primers were designed based on the published sequence of human orphan receptor GPR9 (1) with incorporated restriction sites, a Kozak consensus sequence, CD8 leader and Flag tag. The PCR product was subcloned into the mammalian expression vector pME18Sneo, a derivative of the SR-alpha expression vector (designated as pME18Sneo-hCXCR3 (N-delta 4).
IL-3-dependent mouse pro-B cells Ba/F3 were transfected by electroporation in 0.4 ml Dulbecco's PBS containing 4×10^6 cells with 20 μg of pME18Sneo-hCXCR3 (N-delta 4) plasmid DNA. Cells were pulsed at 400 Volts, 100 OHMs, 960 μFd. The transfected cells were under selection with 1 mg/ml G418 (Life Technologies, Gaithersburg, Md.). G418-resistant Ba/F3 clones were screened for CXCR3 expression by specific binding of [^125I] IP-10 (NEN Life Science Products, Boston, Mass.).
Preparation of Ba/F3-hCXCR3 (N-delta 4) Membranes:
Ba/F3 cells expressing human CXCR3 (N-delta 4) were pelleted and resuspended in the lysis buffer containing 10 mM HEPES, pH 7.5 and Complete® protease inhibitors (1 tablet per 100 ml) (Boehringer Mannheim, Indianapolis, Ind.) at a cell density of 20×10^6 cells per ml. After 5 minutes incubation on ice, cells were transferred to 4639 cell disruption bomb (Parr Instrument, Moline, Ill.) and applied with 1,500 psi of nitrogen for 30 minutes on ice. Large cellular debris was removed by centrifugation at 1,000×g. Cell membrane in the supernatant was sedimented at 100,000×g. The membrane was resuspended in the lysis buffer supplemented with 10% sucrose and stored at −80° C. Total protein concentration of the membrane was determined by BCA method from Pierce (Rockford, Ill.).
Human CXCR3 (N-delta 4) Scintillation Proximity Assay (SPA):
For each assay point, 2 μg of membrane was preincubated for 1 hr with 300 μg wheat germ agglutinin (WGA) coated SPA beads (Amersham, Arlington Heights, Ill.) in the binding buffer (50 mM HEPES, 1 mM CaCl2, 5 mM MgCl2, 125 mM NaCl, 0.002% NaN3, 1.0% BSA) at room temperature. The beads were spun down, washed once, resuspended in the binding buffer and transferred to a 96-well Isoplate (Wallac, Gaithersburg, Md.). 25 pM of [^125I] IP-10 with tested compounds in a series of titration were added to start the reaction. After 3 hr reaction at room temperature, the amount of [^125I] IP-10 bound to the SPA beads was determined with a Wallac 1450 Microbeta counter.
The Ki values for the various example compounds of the present invention are given in the afore-mentioned Table 1. From these values, it would be apparent to the skilled artisan that the compounds of the invention have excellent utility CXCR3 antagonists.

IC50, 0.2 nM:
CC[C@H]1CN(c2nc(N)c(-c3nnc(C)o3)nc2Cl)CCN1C1CCN(Cc2ccc(Cl)cc2/C(N)=N\O)CC1 [Compound 1]

Same assay, conditions: IC50 rating; Ba/F3-hCXCR3 (N-delta 4) membranes, 25 pM [125I] IP-10; read-out: IC50

IC50, < 25 nM:
CC[C@H]1CN(c2nc(N)c(-c3nnc(C)o3)nc2Cl)CCN1C1CCN(Cc2ccc(Cl)cc2/C(N)=N\O)CC1 [Compound 1]
CC[C@H]1CN(c2nc(N)c(-c3nnc(CO)o3)nc2Cl)CCN1C1CCN(Cc2ccc(Cl)cc2/C(N)=N\O)CC1 [Compound 2]
CC[C@H]1CN(c2nc(N)c(-c3nnc(N)o3)nc2Cl)CCN1C1CCN(Cc2ccc(Cl)cc2F)CC1 [Compound 3]
CC[C@H]1CN(c2nc(N)c(-c3nnc(C)o3)nc2Cl)CCN1C1CCN(Cc2ccc(Cl)cc2)CC1 [Compound 4]
CC[C@H]1CN(c2nc(N)c(-c3nnc(C)o3)nc2Cl)CCN1C1CCN([C@@H](CO)c2ccc(Cl)cc2)CC1 [Compound 5]
CC[C@H]1CN(c2nc(N)c(-c3nnc(CO)o3)nc2Cl)CCN1C1CCN([C@@H](CO)c2ccc(Cl)cc2)CC1 [Compound 6]
CC[C@H]1CN(c2nc(N)c(-c3nnc(C)o3)nc2Cl)CCN1C1CCN(Cc2ccc(Cl)c(OCCS(C)(=O)=O)c2)CC1 [Compound 7]
CC[C@H]1CN(c2nc(N)c(-c3nnc(C)o3)nc2Cl)CCN1C1CCN(Cc2ccc(Cl)cc2C(N)=O)CC1 [Compound 8]
CC[C@H]1CN(c2nc(N)c(-c3nnc(N)o3)nc2Cl)CCN1C1CCN(Cc2ccc(C#N)cc2)CC1 [Compound 9]
CCNc1nnc(-c2cnc(N3CCN(C4CCN(C(=O)c5ccc(Cl)nc5N)CC4)[C@@H](CC)C3)c(Cl)n2)o1 [Compound 10]
CC[C@H]1CN(c2nc(N)c(-c3nnc(NC(C)C)o3)nc2Cl)CCN1C1CCN(C(=O)c2ccc(Cl)nc2N)CC1 [Compound 11]
CCCNc1nnc(-c2nc(Cl)c(N3CCN(C4CCN(C(=O)c5ccc(Cl)nc5N)CC4)[C@@H](CC)C3)nc2N)o1 [Compound 12]
CCNc1nnc(-c2cnc(N3CCN(C4CCN(C(=O)c5ccc(Cl)nc5N)CC4)[C@@H](CC)C3)c(C)n2)s1 [Compound 13]
CCNc1nnc(-c2nc(Cl)c(N3CCN(C4CCN(C(=O)c5ccc(Cl)nc5N)CC4)[C@@H](CC)C3)nc2N)o1 [Compound 14]
CC[C@H]1CN(c2nc(N)c(-c3nnc(N)o3)nc2Cl)CCN1C1CCN(Cc2ccc(Cl)nc2)CC1 [Compound 15]
CCNc1nnc(-c2cnc(N3CCN(C4CCN(C(=O)c5ccc(Cl)nc5N)CC4)[C@@H](CC)C3)c(C)n2)o1 [Compound 16]
CC[C@H]1CN(c2nc(N)c(-c3nnc(N)o3)nc2Cl)CCN1C1CCN(C(=O)c2ccc(Cl)nc2N)CC1 [Compound 17]
CCNc1nnc(-c2cnc(N3CCN(C4CCN(C(=O)c5ccc(Cl)nc5N)CC4)[C@@H](CC)C3)c(Cl)n2)s1 [Compound 18]
CC[C@H]1CN(c2nc(N)c(-c3nnc(C)o3)nc2Cl)CCN1C1CCN(C(=O)c2cc(F)c(Cl)nc2N)CC1 [Compound 19]
CCNc1nnc(-c2nc(Cl)c(N3CCN(C4CCN(C(=O)c5ccc(Cl)cc5)CC4)[C@@H](CC)C3)nc2N)o1 [Compound 20]
CC[C@H]1CN(c2ncc(-c3nnc(C)o3)nc2C)CCN1C1CCN(C(=O)c2ccc(Cl)cc2N)CC1 [Compound 21]
CC[C@H]1CN(c2nc(N)c(-c3nnc(C)o3)nc2Cl)CCN1C1CCN(C(=O)c2ccc(Cl)nc2N)CC1 [Compound 23]
CC[C@H]1CN(c2nc(N)c(C3=NCCN3)nc2Cl)CCN1C1CCN(C(=O)c2ccc(Cl)nc2N)CC1 [Compound 24]
CC[C@H]1CN(c2nc(N)c(-c3nnc(CO)o3)nc2Cl)CCN1C1CCN(C(=O)c2ccc(Cl)nc2N)CC1 [Compound 25]
CC[C@H]1CN(c2nc(N)c(-c3nnc(NCC(=O)OC)o3)nc2Cl)CCN1C1CCN(C(=O)c2ccc(Cl)nc2N)CC1 [Compound 26]
CC[C@H]1CN(c2ncc(C3=NCCN3)nc2Cl)CCN1C1CCN(C(=O)c2ccc(Cl)nc2N)CC1 [Compound 27]
CC[C@H]1CN(c2nc(N)c(-c3nnc(C(C)(C)O)o3)nc2Cl)CCN1C1CCN(Cc2ccc(Cl)cc2)CC1 [Compound 28]
CC[C@H]1CN(c2nc(N)c(-c3nnc(N(C)C)o3)nc2Cl)CCN1C1CCN(Cc2ccc(Cl)cc2)CC1 [Compound 29]
CC[C@H]1CN(c2nc(N)c(-c3nnc(N)[nH]3)nc2Cl)CCN1C1CCN(C(=O)c2ccc(Cl)nc2N)CC1 [Compound 30]
CC[C@H]1CN(c2nc(N)c(-c3nnc(C)o3)nc2Cl)CCN1C1CCN(C(=O)c2cc(F)c(Cl)nc2Cl)CC1 [Compound 31]
CC[C@H]1CN(c2ncc(-c3nnc(C)o3)nc2Cl)CCN1C1CCN(C(=O)c2ccc(Cl)cc2)CC1 [Compound 32]
CC[C@H]1CN(c2ncc(-c3nnc(C)o3)nc2Cl)CCN1C1CCN(C(=O)c2cc(F)c(Cl)nc2Cl)CC1 [Compound 33]
CC[C@H]1CN(c2nc(N)c(-c3nnc(CN)o3)nc2Cl)CCN1C1CCN(C(=O)c2ccc(Cl)nc2N)CC1 [Compound 34]
CC[C@H]1CN(c2ncc(-c3nnc(C)o3)nc2C)CCN1C1CCN(C(=O)c2ccc(Cl)nc2N)CC1 [Compound 35]
CC[C@H]1CN(c2nc(N)c(-c3nnc(N)o3)nc2Cl)CCN1C1CCN(C(=O)c2ccc(Cl)cc2)CC1 [Compound 36]
CC[C@H]1CN(c2ncc(-c3nnc(C)[nH]3)nc2Cl)CCN1C1CCN(C(=O)c2ccc(Cl)nc2N)CC1 [Compound 37]
CC[C@H]1CN(c2ncc(-c3nc[nH]n3)nc2C)CCN1C1CCN(C(=O)c2ccc(Cl)nc2N)CC1 [Compound 38]
CC[C@H]1CN(c2nc(N)c(-c3nnc(C(N)=O)o3)nc2Cl)CCN1C1CCN(C(=O)c2ccc(Cl)nc2N)CC1 [Compound 40]
CC[C@H]1CN(c2nc(N)c(-c3nnc(NCCO)o3)nc2Cl)CCN1C1CCN(C(=O)c2ccc(Cl)nc2N)CC1 [Compound 41]
CCNC(=O)Nc1nnc(-c2nc(Cl)c(N3CCN(C4CCN(C(=O)c5ccc(Cl)nc5N)CC4)[C@@H](CC)C3)nc2N)o1 [Compound 42]
CC[C@H]1CN(c2nc(N)c(-c3nnc(C)o3)nc2Cl)CCN1C1CCN(C(=O)c2ccc(Cl)cc2)CC1 [Compound 43]
CC[C@H]1CN(c2ncc(-c3n[nH]c(N)n3)nc2C)CCN1C1CCN(C(=O)c2ccc(Cl)nc2N)CC1 [Compound 44]
CC[C@H]1CN(c2nc(N)c(-c3nnc(CO)o3)nc2Cl)CCN1C1CCN(Cc2ccc(Cl)cc2C#N)CC1 [Compound 45]
CC[C@H]1CN(c2nc(N)c(-c3nnc(CNC(=O)C(F)(F)F)o3)nc2Cl)CCN1C1CCN(C(=O)c2ccc(Cl)nc2N)CC1 [Compound 46]
CC[C@H]1CN(c2nc(N)c(-c3nnc(CO)o3)nc2Cl)CCN1C1CCN([C@@H](C(=O)OC)c2ccc(Cl)cc2)CC1 [Compound 47]
CC[C@H]1CN(c2nc(N)c(-c3nnc(C)o3)nc2Cl)CCN1C1CCN(Cc2ccc(Cl)cc2C#N)CC1 [Compound 48]
CC[C@H]1CN(c2ncc(-c3nc[nH]n3)nc2C)CCN1C1CCN(C(=O)c2ccc(Cl)cc2)CC1 [Compound 49]
